“And” between values parts separate entries of the source, which are not always exact repeats. Equal values may be shown once.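 Interpolation was linear, between the two tested concentrations surrounding the appropriate level; five concentrations were tested over 48 hours in 96-well plates. GI50 = concentration required for 50% inhibition of growth.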 The source made the active and inactive calls. No stated cut-off is given here; in the data, active = GI50 up to about 1.1 µM and inactive = higher.
What was measured:
Experiment in all cases: inhibition of tumour cell growth, NCI panel, 48 h
786-0 = system: 786-0
A549 = system: A549
ACHN = system: ACHN
CCRF-CEM = system: CCRF-CEM
COLO 205 = system: COLO 205
DMS-114 = system: DMS-114
DMS-273 = system: DMS-273
EKVX = system: EKVX
HCT-116 = system: HCT-116
HCT-15 = system: HCT-15
HL-60 = system: HL-60
HOP-18 = system: HOP-18
HOP-62 = system: HOP-62
HT-29 = system: HT-29
K562 = system: K562
KM-20L2 = system: KM-20L2
KM12 = system: KM12
LOX IMVI = system: LOX IMVI
LXFL 529 = system: LXFL 529
M14 = system: M14
M19-MEL = system: M19-MEL
MOLT-4 = system: MOLT-4
Malme-3M = system: Malme-3M
NCI-H226 = system: NCI-H226
NCI-H23 = system: NCI-H23
NCI-H460 = system: NCI-H460
NCI-H522 = system: NCI-H522
OVCAR-4 = system: OVCAR-4
OVCAR-8 = system: OVCAR-8
RPMI-8226 = system: RPMI-8226
RXF 393 = system: RXF 393
SF-268 = system: SF-268
SF-295 = system: SF-295
SK-MEL-28 = system: SK-MEL-28
SK-MEL-2 = system: SK-MEL-2
SK-MEL-5 = system: SK-MEL-5
SK-OV-3 = system: SK-OV-3
SN12C = system: SN12C
SNB-19 = system: SNB-19
SNB-75 = system: SNB-75
SNB-78 = system: SNB-78
SR = system: SR
SW-620 = system: SW-620
TK-10 = system: TK-10
U-251 = system: U-251
UACC-257 = system: UACC-257
UACC-62 = system: UACC-62
UO-31 = system: UO-31
A498 = system: A498
DLD-1 = system: DLD-1
HCC 2998 = system: HCC 2998
OVCAR-5 = system: OVCAR-5
BT-549 = system: BT-549
CAKI-1 = system: CAKI-1
DU-145 = system: DU-145
HOP-92 = system: HOP-92
Hs-578T = system: Hs-578T
IGROV-1 = system: IGROV-1
MCF7 = system: MCF7
MDA-MB-231 = system: MDA-MB-231
MDA-MB-435 = system: MDA-MB-435
MDA-N = system: MDA-N
NCI/ADR-RES = system: NCI/ADR-RES
OVCAR-3 = system: OVCAR-3
PC-3 = system: PC-3
SF-539 = system: SF-539
T47D = system: T47D

Structure (SMILES): O=C(CSc1nnc(-c2ccc(/N=C\c3ccc(Cl)cc3)cc2)o1)Nc1cccc([N+](=O)[O-])c1
- GI50 (786-0): > 100 µM (inactive)
- GI50 (A549): > 100 µM (inactive)
- GI50 (ACHN): > 100 µM (inactive)
- GI50 (CCRF-CEM): > 100 µM (inactive)
- GI50 (COLO 205): > 100 µM (inactive)
- GI50 (DMS-114): > 100 µM (inactive)
- GI50 (DMS-273): > 100 µM (inactive)
- GI50 (EKVX): > 100 µM (inactive)
- GI50 (HCT-116): > 100 µM (inactive)
- GI50 (HCT-15): > 100 µM
- GI50 (HL-60): > 100 µM (inactive)
- GI50 (HOP-18): > 100 µM (inactive)
- GI50 (HOP-62): > 100 µM (inactive)
- GI50 (HT-29): > 100 µM (inactive)
- GI50 (K562): > 100 µM (inactive)
- GI50 (KM-20L2): > 100 µM (inactive)
- GI50 (KM12): > 100 µM (inactive)
- GI50 (LOX IMVI): > 100 µM (inactive)
- GI50 (LXFL 529): > 100 µM (inactive)
- GI50 (M14): > 100 µM (inactive)
- GI50 (M19-MEL): > 100 µM (inactive)
- GI50 (MOLT-4): > 100 µM (inactive)
- GI50 (Malme-3M): > 100 µM (inactive)
- GI50 (NCI-H226): > 100 µM (inactive)
- GI50 (NCI-H23): > 100 µM (inactive)
- GI50 (NCI-H460): > 100 µM (inactive)
- GI50 (NCI-H522): 27.5 µM (inactive)
- GI50 (OVCAR-4): > 100 µM (inactive)
- GI50 (OVCAR-8): > 100 µM (inactive)
- GI50 (RPMI-8226): > 100 µM (inactive)
- GI50 (RXF 393): > 100 µM (inactive)
- GI50 (SF-268): > 100 µM (inactive)
- GI50 (SF-295): > 100 µM (inactive)
- GI50 (SK-MEL-28): > 100 µM (inactive)
- GI50 (SK-MEL-2): > 100 µM (inactive)
- GI50 (SK-MEL-5): > 100 µM (inactive)
- GI50 (SK-OV-3): > 100 µM (inactive)
- GI50 (SN12C): > 100 µM (inactive)
- GI50 (SNB-19): > 100 µM (inactive)
- GI50 (SNB-75): > 100 µM (inactive)
- GI50 (SNB-78): > 100 µM (inactive)
- GI50 (SR): > 100 µM (inactive)
- GI50 (SW-620): > 100 µM (inactive)
- GI50 (TK-10): > 100 µM (inactive)
- GI50 (U-251): > 100 µM (inactive)
- GI50 (UACC-257): > 100 µM (inactive)
- GI50 (UACC-62): > 100 µM (inactive)
- GI50 (UO-31): > 100 µM (inactive)

Structure (SMILES): CC(=O)OCC1OC(n2c(=S)n(-c3ccccc3)c(=O)c3cc(Br)cc(Br)c32)C(OC(C)=O)C(OC(C)=O)C1OC(C)=O (centres undefined)
- GI50 (A498): > 100 µM (inactive) and 61.7 µM (inactive)
- GI50 (A549): 90.8 µM (inactive) and 58.6 µM (inactive)
- GI50 (ACHN): 51.8 µM (inactive) and 87.3 µM (inactive)
- GI50 (CCRF-CEM): > 100 µM (inactive)
- GI50 (COLO 205): > 100 µM (inactive)
- GI50 (DLD-1): > 100 µM (inactive)
- GI50 (DMS-114): 35.2 µM (inactive) and 57.8 µM (inactive)
- GI50 (DMS-273): > 100 µM (inactive) and 64.9 µM (inactive)
- GI50 (EKVX): > 100 µM (inactive)
- GI50 (HCC 2998): > 100 µM (inactive)
- GI50 (HCT-116): 65.2 µM (inactive)
- GI50 (HCT-15): 83.4 µM
- GI50 (HL-60): 86.7 µM (inactive)
- GI50 (HT-29): > 100 µM (inactive)
- GI50 (K562): 65.3 µM (inactive)
- GI50 (KM12): 83 µM (inactive) and 78.5 µM (inactive)
- GI50 (LOX IMVI): 60 µM (inactive)
- GI50 (LXFL 529): 72.1 µM (inactive) and 45.2 µM (inactive)
- GI50 (M19-MEL): 65.6 µM (inactive)
- GI50 (Malme-3M): > 100 µM (inactive)
- GI50 (NCI-H226): 61.7 µM (inactive)
- GI50 (NCI-H460): > 100 µM (inactive) and 81.8 µM (inactive)
- GI50 (OVCAR-5): > 100 µM (inactive)
- GI50 (OVCAR-8): > 100 µM (inactive) and 92.9 µM (inactive)
- GI50 (SK-MEL-28): > 100 µM (inactive)
- GI50 (SK-MEL-2): > 100 µM (inactive)
- GI50 (SK-MEL-5): 91.6 µM (inactive)
- GI50 (SN12C): > 100 µM (inactive) and 81.8 µM (inactive)
- GI50 (SNB-75): 33.5 µM (inactive) and 22.6 µM (inactive)
- GI50 (SNB-78): 99.3 µM (inactive) and 54.8 µM (inactive)
- GI50 (SW-620): > 100 µM (inactive)
- GI50 (UACC-62): 59.2 µM (inactive) and 54.3 µM (inactive)

Structure (SMILES): CS(=O)(=O)OCCN(CCOS(C)(=O)=O)c1ccc(/C=N/c2ccc3oc(=O)ccc3c2)cc1
- GI50 (786-0): 0.321 µM (active)
- GI50 (A498): 2 µM (inactive)
- GI50 (A549): 3.47 µM (inactive)
- GI50 (ACHN): 0.492 µM (active)
- GI50 (BT-549): 10.5 µM (inactive)
- GI50 (CAKI-1): 0.622 µM (active)
- GI50 (CCRF-CEM): 0.871 µM (active)
- GI50 (COLO 205): 2.05 µM (inactive)
- GI50 (DMS-114): 0.714 µM (active)
- GI50 (DU-145): 0.968 µM (active)
- GI50 (EKVX): 8.2 µM (inactive)
- GI50 (HCC 2998): 1.61 µM (inactive)
- GI50 (HCT-116): 37.7 µM (inactive)
- GI50 (HCT-15): 7.21 µM
- GI50 (HL-60): 1.71 µM (inactive)
- GI50 (HOP-62): 1.89 µM (inactive)
- GI50 (HOP-92): 12.3 µM (inactive)
- GI50 (HT-29): 5.66 µM (inactive)
- GI50 (Hs-578T): 28.1 µM (inactive)
- GI50 (IGROV-1): 12 µM (inactive)
- GI50 (K562): 24.6 µM (inactive)
- GI50 (KM-20L2): 2.64 µM (inactive)
- GI50 (KM12): 8.41 µM (inactive)
- GI50 (LOX IMVI): 7.23 µM (inactive)
- GI50 (LXFL 529): 13.1 µM (inactive)
- GI50 (M14): 2.82 µM (inactive)
- GI50 (M19-MEL): 13.2 µM (inactive)
- GI50 (MCF7): 3.59 µM (inactive)
- GI50 (MDA-MB-231): 32.9 µM (inactive)
- GI50 (MDA-MB-435): 11.1 µM (inactive)
- GI50 (MDA-N): 10.9 µM (inactive)
- GI50 (MOLT-4): 0.318 µM (active)
- GI50 (Malme-3M): 8.73 µM (inactive)
- GI50 (NCI-H226): 3.53 µM (inactive)
- GI50 (NCI-H23): 2.04 µM (inactive)
- GI50 (NCI-H460): 0.0313 µM (active)
- GI50 (NCI-H522): 0.211 µM (active)
- GI50 (NCI/ADR-RES): 8.59 µM (inactive)
- GI50 (OVCAR-3): 3.58 µM (inactive)
- GI50 (OVCAR-4): 11.7 µM (inactive)
- GI50 (OVCAR-5): 3.24 µM (inactive)
- GI50 (OVCAR-8): 6.97 µM (inactive)
- GI50 (PC-3): 16.6 µM (inactive)
- GI50 (RPMI-8226): 6.53 µM (inactive)
- GI50 (RXF 393): 0.553 µM (active)
- GI50 (SF-268): 5.13 µM (inactive)
- GI50 (SF-295): 0.933 µM (active)
- GI50 (SF-539): 4.43 µM (inactive)
- GI50 (SK-MEL-28): 12.9 µM (inactive)
- GI50 (SK-MEL-2): 15.8 µM (inactive)
- GI50 (SK-MEL-5): 7.08 µM (inactive)
- GI50 (SK-OV-3): 1.11 µM (active)
- GI50 (SN12C): 6.78 µM (inactive)
- GI50 (SNB-19): 8.97 µM (inactive)
- GI50 (SNB-75): 2.43 µM (inactive)
- GI50 (SNB-78): 2.12 µM (inactive)
- GI50 (SR): 0.395 µM (active)
- GI50 (SW-620): 14.2 µM (inactive)
- GI50 (T47D): 5.6 µM (inactive)
- GI50 (TK-10): 2.45 µM (inactive)
- GI50 (U-251): 9.38 µM (inactive)
- GI50 (UACC-257): 6.82 µM (inactive)
- GI50 (UACC-62): 1.8 µM (inactive)
- GI50 (UO-31): 0.959 µM (active)
